Assay results published in patent publication US20210032253A1, “PYRAZOLO[1,5-A][1,3,5]TRIAZINE-2-AMINE DERIVATIVE, PREPARATION METHOD THEREFOR AND MEDICAL USE THEREOF” (JIANGSU HENGRUI MEDICINE CO., LTD., priority 2018, published 2021).

Legend:
Assay type in all cases: cell-based
[1] = target: T1, adenosine A1 receptor (A1R) (Homo sapiens, UniProt P30542); assay: Inhibition of adenosine A1 receptor cAMP signaling pathway in CHO-K1/A1R cells (HTRF cAMP dynamic 2 kit); conditions: Table 2; for IC50: CHO-K1/A1R cells, cAMP, 10 μM forskolin, 10 nM CPA; for IC50 ratio (A1R/A2aR): selectivity A1R over A2aR
T1 construct: expressed in transfected cells; host or cells: CHO-K1
T1 sequence (P30542 1-326): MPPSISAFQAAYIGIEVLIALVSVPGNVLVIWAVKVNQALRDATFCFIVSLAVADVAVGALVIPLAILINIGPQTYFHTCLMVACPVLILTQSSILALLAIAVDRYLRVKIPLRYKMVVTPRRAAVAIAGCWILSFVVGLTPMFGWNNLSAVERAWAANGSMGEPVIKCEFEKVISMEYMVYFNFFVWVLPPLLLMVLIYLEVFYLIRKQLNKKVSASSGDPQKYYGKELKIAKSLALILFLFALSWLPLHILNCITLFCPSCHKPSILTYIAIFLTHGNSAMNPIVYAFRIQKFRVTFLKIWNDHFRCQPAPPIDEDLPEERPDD
Text: (§1) Test Example 1. Determination of the inhibitory activities of the compounds of the present disclosure on the adenosine A2a receptor (A2aR) cAMP signaling pathway, the adenosine A1 receptor (A1R) cAMP signaling pathway and the adenosine A3 receptor (A3R) cAMP signaling pathway.
(§2) The inhibitory activities of the compounds of the present disclosure on the adenosine A2a receptor (A2aR) cAMP signaling pathway, the adenosine A1 receptor cAMP signaling pathway and the adenosine A3 receptor cAMP signaling pathway were determined by the following methods. The experimental method is briefly described as follows:
CHO-K1/A1R cells were cultured in DMEMIF12 medium containing 10% fetal bovine serum and 1 mg/mL G418. The cells were digested with the cell dissociation buffer during the experiment. The cells were then resuspended in the HBSS buffer containing 20 mM HEPES and 0.1% bovine serum albumin and counted, and the cell density was adjusted to 5×10^5 cells/mL. In 384-well plates, each well was added with 12.5 μL of the cell suspension, and 6.25 μL of the test compounds (4× concentration) formulated with the HBSS buffer containing 20 mM HEPES, 0.1% bovine serum albumin, 54 μM rolipram and 2.7 U/mL adenosine deaminase, and the plates were incubated at room temperature for 30 minutes. Each well was then added with 6.25 μL of forskolin and N6-cyclopentyladenosine (4× concentration) formulated with the HBSS buffer containing 20 mM HEPES, 0.1% bovine serum albumin, 54 μM rolipram and 2.7 U/mL adenosine deaminase, and the plates were incubated at room temperature for 30 minutes. The final concentrations of the compounds were: 100000, 10000, 1000, 100, 10, 1, 0.1 and 0 nM. The final concentration of forskolin was 10 μM. The final concentration of CPA was 10 nM. Intracellular cAMP concentration was determined with cAMP dynamic 2 kits. cAMP-d2 and Anti-cAMP—Eu-Cryptate were diluted respectively with the cAMP lysis buffer at a ratio of 1:4. Each well was added with 12.5 μL of the diluted cAMP-d2, followed by addition of 12.5 μL of the diluted Anti-cAMP—Eu-Cryptate, and the plates were incubated at room temperature in the dark for 1 hour. The HTRF signal values were read by the PHERAstar multi-function microplate reader.

[2] = target: T2, adenosine A2a receptor (A2aR) (Homo sapiens, UniProt P29274); assay: Inhibition of adenosine A2a receptor cAMP signaling pathway in CHO-K1/A2aR cells (HTRF cAMP dynamic 2 kit); conditions: Table 1, 20 nM ethylcarbazole
T2 construct: expressed in transfected cells; host or cells: CHO-K1
T2 sequence (P29274 whole entry): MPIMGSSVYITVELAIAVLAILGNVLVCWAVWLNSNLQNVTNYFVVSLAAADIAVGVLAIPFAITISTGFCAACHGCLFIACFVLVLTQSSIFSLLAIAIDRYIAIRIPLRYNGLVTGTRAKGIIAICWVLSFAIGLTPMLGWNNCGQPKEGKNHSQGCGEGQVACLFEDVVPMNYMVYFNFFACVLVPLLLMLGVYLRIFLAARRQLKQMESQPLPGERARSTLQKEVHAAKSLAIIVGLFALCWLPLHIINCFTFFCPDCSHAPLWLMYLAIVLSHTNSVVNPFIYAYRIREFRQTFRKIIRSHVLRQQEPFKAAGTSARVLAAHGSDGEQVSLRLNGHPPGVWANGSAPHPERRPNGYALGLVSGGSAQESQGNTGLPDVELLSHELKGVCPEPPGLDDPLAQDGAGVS
Text: as §1, §2
CHO-K1/A2aR cells were cultured in DMEM/F12 medium containing 10% fetal bovine serum and 800 μg/mL Zeocin™. The cells were digested with the cell dissociation buffer during the experiment. The cells were resuspended in the HBSS buffer containing 20 mM HEPES and 0.1% bovine serum albumin and counted, and the cell density was adjusted to 10^6 cells/mL. In 384-well plates, each well was added with 5 μL of the cell suspension, and 2.5 µL of test compounds (4× concentration) formulated with the HBSS buffer containing 20 mM HEPES, 0.1% bovine serum albumin, 54 μM rolipram and 2.7 U/mL adenosine deaminase, and the plates were incubated at room temperature for 30 minutes. Each well was then added with 2.5 μL of ethylcarbazole (4× concentration) formulated with the balanced salt buffer containing 20 mM HEPES, 0.1% bovine serum albumin, 54 μM rolipram and 2.7 U/mL adenosine deaminase, and the plates were incubated at room temperature for 30 minutes. The final concentrations of the compounds were: 10000, 2000, 400, 80, 16, 3.2, 0.64, 0.128, 0.0256, 0.00512, and 0.001024 nM. The final concentration of ethylcarbazole was 20 nM. Intracellular cAMP concentration was determined with cAMP dynamic 2 kits. cAMP-d2 and Anti-cAMP—Eu-Cryptate were diluted respectively with the cAMP lysis buffer at a ratio of 1:4. Each well was added with 5 μL of the diluted cAMP-d2, followed by addition of 5 μL of the diluted Anti-cAMP—Eu-Cryptate, and the plates were incubated at room temperature in the dark for 1 hour. The HTRF signal values were read by the PHERAstar multi-function microplate reader.

[3] = target: T3, adenosine A3 receptor (A3R) (Homo sapiens, UniProt P0DMS8); assay: Inhibition of adenosine A3 receptor cAMP signaling pathway in CHO-K1/A3R cells (HTRF cAMP dynamic 2 kit); conditions: Table 3; for IC50: CHO-K1/A3R cells, cAMP, 10 μM forskolin, 5 nM 2Cl-IB-MECA; for IC50 ratio (A3R/A2aR): selectivity A3R over A2aR
T3 construct: expressed in transfected cells; host or cells: CHO-K1
T3 sequence (P0DMS8 1-318): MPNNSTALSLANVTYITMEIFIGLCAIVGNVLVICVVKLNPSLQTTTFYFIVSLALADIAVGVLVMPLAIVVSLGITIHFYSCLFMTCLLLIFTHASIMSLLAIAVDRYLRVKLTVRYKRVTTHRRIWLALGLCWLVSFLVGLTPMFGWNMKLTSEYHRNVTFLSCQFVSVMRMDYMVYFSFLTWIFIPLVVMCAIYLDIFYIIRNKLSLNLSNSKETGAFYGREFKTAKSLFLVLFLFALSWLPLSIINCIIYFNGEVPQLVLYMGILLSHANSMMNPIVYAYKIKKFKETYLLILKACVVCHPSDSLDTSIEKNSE
Text: as §1, §2
CHO-K1/A3R cells were cultured in DMEMIF12 medium containing 10% fetal bovine serum and 10 μg/mL puromycin. The cells were digested with the cell dissociation buffer during the experiment. The cells were resuspended in the HBSS buffer containing 20 mM HEPES and 0.1% bovine serum albumin and counted, and the cell density was adjusted to 5×10^5 cells/mL. In 384-well plates, each well was added with 12.5 μL of the cell suspension, and 6.25 μL of the test compounds (4× concentration) formulated with the HBSS buffer containing 20 mM HEPES, 0.1% bovine serum albumin, 54 μM rolipram and 2.7 U/mL adenosine deaminase, and the plates were incubated at room temperature for 30 minutes. Each well was then added with 6.25 μL of forskolin and 2Cl-IB-MECA (4× concentration) formulated with the HBSS buffer containing 20 mM HEPES, 0.1% bovine serum albumin, […] rolipram and 2.7 U/mL adenosine deaminase, and the plates were incubated at room temperature for 30 minutes. The final concentrations of the compounds were: 100000, 10000, 1000, 100, 10, 1, 0.1 and 0 nM. The final concentration of forskolin was 10 μM. The final concentration of 2Cl-IB-MECA was 5 nM. Intracellular cAMP concentration was determined with cAMP dynamic 2 kits. cAMP-d2 and Anti-cAMP—Eu-Cryptate were diluted respectively with the cAMP lysis buffer at a ratio of 1:4. Each well was added with 12.5 μL of the diluted cAMP-d2, followed by addition of 12.5 μL of the diluted Anti-cAMP—Eu-Cryptate, and the plates were incubated at room temperature in the dark for 1 hour. The HTRF signal values were read by the PHERAstar multi-function microplate reader. IC50 values for the inhibitory activities of the compounds were calculated by Graphpad Prism software, and are shown in Table 3.

Structure (SMILES)	IC50 [1] [nM]	IC50 ratio (A1R/A2aR) [1]	IC50 [2] [nM]	IC50 [3] [nM]	IC50 ratio (A3R/A2aR) [3]
Cc1ccc(-c2nc(N)nc3c(Cc4cccc(CO)n4)cnn23)o1 [Example 2, (6-((2-Amino-4-(5-methylfuran-2-yl)pyrazolo[1,5-a][1,3,5]triazin-8-yl)methyl)pyridin-2-yl)methanol]	1100	>10^3	0.87	2420	>10^3
COCCOCc1cccc(Cc2cnn3c(-c4ccc(C)o4)nc(N)nc23)n1 [Example 3, 8-((6-((2-Methoxyethoxy)methyl)pyridin-2-yl)methyl)-4-(5-methylfuran-2-yl)pyrazolo[1,5-a][1,3,5]triazin-2-amine]	434	964^	0.45	4120	>10^3
Cc1ccc(-c2nc(N)nc3c(Cc4ccccc4F)cnn23)o1 [Example 4, 8-(2-Fluorobenzyl)-4-(5-methylfuran-2-yl)pyrazolo[1,5-a][1,3,5]triazin-2-amine]	–	–	0.14	> 10000	>10^4
Cc1ccc(-c2nc(N)nc3c(Cc4cccc(CN5CCOCC5)n4)cnn23)o1 [Example 5, 4-(5-Methylfuran-2-yl)-8-((6-(morpholinomethyl)pyridin-2-yl)methyl)pyrazolo[1,5-a][1,3,5]triazin-2-amine]	835	>10^3	0.55	2280	>10^3
Cc1ccc(-c2nc(N)nc3c(Cc4cccc(CO[C@@H]5CCOC5)n4)cnn23)o1 [Example 6, (R)-4-(5-Methylfuran-2-yl)-8-((6-(((tetrahydrofuran-3-yl)oxy)methyl)pyridin-2-yl)methyl)pyrazolo[1,5-a][1,3,5]triazin-2-amine]	316	790^	0.4	4810	>10^3
Cc1ccc(-c2nc(N)nc3c(Cc4cccc(CN5CC6(COC6)C5)n4)cnn23)o1 [Example 7, 8-((6-((2-Oxa-6-azaspiro[3.3]heptan-6-yl)methyl)pyridin-2-yl)methyl)-4-(5-methylfuran-2-yl) pyrazolo[1,5-a][1,3,5]triazin-2-amine]	340	288^	1.18	7370	>10^3
Cc1ccc(-c2nc(N)nc3c(Cc4cccc(CN5CCN(C)CC5)n4)cnn23)o1 [Example 8, 4-(5-Methylfuran-2-yl)-8-((6-((4-methylpiperazin-1-yl)methyl)pyridin-2-yl)methyl)pyrazolo[1,5-a][1,3,5]triazin-2-amine]	943	714^	1.32	6490	>10^3
Cc1ccc(-c2nc(N)nc3c(Cc4cccc(COS(N)(=O)=O)n4)cnn23)o1 [Example 11, (6-((2-Amino-4-(5-methylfuran-2-yl)pyrazolo[1,5-a][1,3,5]triazin-8-yl)methyl)pyridin-2-yl)methyl sulfamate]	410	220^	1.86	–	–
Cc1ccc(-c2nc(N)nc3c(Cc4cccc(COCC5CC5)n4)cnn23)o1 [Example 17, 8-((6-((Cyclopropylmethoxy)methyl)pyridin-2-yl)methyl)-4-(5-methylfuran-2-yl)pyrazolo[1,5-a][1,3,5]triazin-2-amine]	–	–	0.72	1390	>10^3
CCCc1cccc(Cc2cnn3c(-c4ccc(C)o4)nc(N)nc23)n1 [Example 20, 4-(5-Methylfuran-2-yl)-8-((6-propylpyridin-2-yl)methyl)pyrazolo[1,5-a][1,3,5]triazin-2-amine]	–	–	0.09	280	>10^3
Cc1ccc(-c2nc(N)nc3c(Oc4ccccn4)cnn23)o1 [Example 23, 4-(5-Methylfuran-2-yl)-8-(pyridin-2-yloxy)pyrazolo[1,5-a][1,3,5]triazin-2-amine]	–	–	0.58	–	–
Cc1ccc(-c2nc(N)nc3c(Nc4ccccc4F)cnn23)o1 [Example 31, N^8-(2-Fluorophenyl)-4-(5-methylfuran-2-yl)pyrazolo[1,5-a][1,3,5]triazine-2,8-diamine]	–	–	3.53	–	–
Nc1nc(-c2ccco2)n2ncc(Cc3ccccc3)c2n1 [Example 33, 8-Benzyl-4-(furan-2-yl)pyrazolo[1,5-a][1,3,5]triazin-2-amine]	565	136^	4.14	–	–
Nc1nc(-c2ccco2)n2ncc(Cc3cccc(F)c3)c2n1 [Example 34, 8-(3-Fluorobenzyl)-4-(furan-2-yl)pyrazolo[1,5-a][1,3,5]triazin-2-amine]	–	–	4.64	–	–
